Measured values: patent US12209081B2 (Katholieke Universiteit Leuven, priority 2020, dated 2025)
pIC50: −log10 of the molar value.

molecular target: mouse TRPM3α2 (mTRPM3) ion channel (Mus musculus (Mouse), UniProt J9SQF3); assay: TRPM3 ion channel driven Ca2+ uptake, Fluo-4 AM assay, mTRPM3alpha2 overexpressing flip-in HEK293 cells stimulated with pregnenolone sulfate; format: cell-based; conditions: PS (50 μM) stimulated, cpds. 400-499
Outline: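 Read-out is Ca2+ influx via Fluo-4 AM fluorescence at 485/535 nm, taken right after seeding ~2000 cells/well onto compound with 50 μM PS. Inhibition computed from RFU between vehicle-stimulated and positive-control-inhibitor wells; cells were mTRPM3α2-overexpressing flip-in HEK293.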

Sequence of mouse TRPM3α2 (mTRPM3) ion channel (J9SQF3 other isoform, or with tags, fused parts or gaps): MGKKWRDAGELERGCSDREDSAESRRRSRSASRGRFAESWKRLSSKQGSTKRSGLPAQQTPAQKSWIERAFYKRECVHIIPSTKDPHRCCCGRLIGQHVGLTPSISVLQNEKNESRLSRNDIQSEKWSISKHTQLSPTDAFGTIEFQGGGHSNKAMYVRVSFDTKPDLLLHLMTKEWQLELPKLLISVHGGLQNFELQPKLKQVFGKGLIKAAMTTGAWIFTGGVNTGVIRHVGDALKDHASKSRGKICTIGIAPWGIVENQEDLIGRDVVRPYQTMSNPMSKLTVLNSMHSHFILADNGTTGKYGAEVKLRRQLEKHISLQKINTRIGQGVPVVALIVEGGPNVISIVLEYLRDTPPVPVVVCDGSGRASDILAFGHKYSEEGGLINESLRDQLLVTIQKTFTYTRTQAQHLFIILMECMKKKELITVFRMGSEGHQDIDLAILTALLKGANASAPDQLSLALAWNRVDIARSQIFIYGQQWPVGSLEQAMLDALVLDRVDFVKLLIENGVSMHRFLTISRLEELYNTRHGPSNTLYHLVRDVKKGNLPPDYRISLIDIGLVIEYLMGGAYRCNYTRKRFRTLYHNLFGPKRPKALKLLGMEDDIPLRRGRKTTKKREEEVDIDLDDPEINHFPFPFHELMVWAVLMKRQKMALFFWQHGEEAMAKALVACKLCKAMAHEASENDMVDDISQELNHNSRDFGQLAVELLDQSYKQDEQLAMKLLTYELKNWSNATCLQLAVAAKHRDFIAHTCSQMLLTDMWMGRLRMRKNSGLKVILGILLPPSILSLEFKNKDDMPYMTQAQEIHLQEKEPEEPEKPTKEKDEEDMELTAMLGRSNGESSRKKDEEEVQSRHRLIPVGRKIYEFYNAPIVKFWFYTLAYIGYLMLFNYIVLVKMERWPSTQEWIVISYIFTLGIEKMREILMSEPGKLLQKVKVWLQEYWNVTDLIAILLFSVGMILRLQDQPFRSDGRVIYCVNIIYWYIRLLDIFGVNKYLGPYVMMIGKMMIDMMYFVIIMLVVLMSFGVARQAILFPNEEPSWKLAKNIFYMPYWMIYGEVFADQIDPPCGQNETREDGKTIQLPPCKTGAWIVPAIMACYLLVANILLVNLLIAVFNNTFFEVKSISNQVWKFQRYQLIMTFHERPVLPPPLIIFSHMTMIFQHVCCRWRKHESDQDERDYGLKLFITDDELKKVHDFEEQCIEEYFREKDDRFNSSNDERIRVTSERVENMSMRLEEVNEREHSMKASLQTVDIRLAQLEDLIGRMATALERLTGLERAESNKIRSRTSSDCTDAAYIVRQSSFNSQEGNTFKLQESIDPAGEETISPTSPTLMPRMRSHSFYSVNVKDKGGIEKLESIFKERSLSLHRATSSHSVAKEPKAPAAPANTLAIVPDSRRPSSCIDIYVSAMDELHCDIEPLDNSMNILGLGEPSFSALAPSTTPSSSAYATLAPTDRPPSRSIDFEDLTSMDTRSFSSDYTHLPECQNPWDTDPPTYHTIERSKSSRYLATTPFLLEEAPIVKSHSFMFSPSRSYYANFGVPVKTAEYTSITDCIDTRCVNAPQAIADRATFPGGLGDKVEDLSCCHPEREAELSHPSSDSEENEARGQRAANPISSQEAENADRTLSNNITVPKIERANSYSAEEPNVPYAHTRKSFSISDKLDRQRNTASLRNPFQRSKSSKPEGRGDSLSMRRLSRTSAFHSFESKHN

pIC50, > 6.00:
Cc1oc2ccc(OCc3cccnc3C(F)(F)F)cc2c1C(=O)NC1(C(N)=O)CC1 [compound 475, N-(1-carbamoylcyclopropyl)-2-methyl-5-((2-(trifluoromethyl)pyridin-3-yl)methoxy)benzofuran-3-carboxamide]
Cc1ncc(COc2ccc3oc(C)c(C(=O)NC4(C(N)=O)CC4)c3c2)s1 [compound 476, N-(1-carbamoylcyclopropyl)-2-methyl-5-((2-methylthiazol-5-yl)methoxy)benzofuran-3-carboxamide]
Cc1ncsc1COc1ccc2oc(C)c(C(=O)NC3(C(N)=O)CC3)c2c1 [compound 477, N-(1-carbamoylcyclopropyl)-2-methyl-5-((4-methylthiazol-5-yl)methoxy)benzofuran-3-carboxamide]
Cc1oc2ccc(OCc3ccccn3)cc2c1C(=O)NC1(C(N)=O)CC1 [compound 478, N-(1-carbamoylcyclopropyl)-2-methyl-5-(pyridin-2-ylmethoxy)benzofuran-3-carboxamide]
COc1ncccc1COc1ccc2oc(C)c(C(=O)NC3(C(N)=O)CC3)c2c1 [compound 480, N-(1-carbamoylcyclopropyl)-5-((2-methoxypyridin-3-yl)methoxy)-2-methylbenzofuran-3-carboxamide]
Cc1oc2ccc(OCc3nccn3C)cc2c1C(=O)NC(C)(C)CO [compound 481, N-(1-hydroxy-2-methylpropan-2-yl)-2-methyl-5-((1-methyl-1H-imidazol-2-yl)methoxy)benzofuran-3-carboxamide]
Cc1oc2ccc(OCc3ccnn3C)cc2c1C(=O)NC(C)(C)CO [compound 482, N-(1-hydroxy-2-methylpropan-2-yl)-2-methyl-5-((1-methyl-1H-pyrazol-5-yl)methoxy)benzofuran-3-carboxamide]
Cc1ncc(COc2ccc3oc(C)c(C(=O)NC(C)(C)CO)c3c2)s1 [compound 483, N-(1-hydroxy-2-methylpropan-2-yl)-2-methyl-5-((2-methylthiazol-5-yl)methoxy)benzofuran-3-carboxamide]
Cc1oc2ccc(OCc3ccccn3)cc2c1C(=O)NC(C)(C)CO [compound 484, N-(1-hydroxy-2-methylpropan-2-yl)-2-methyl-5-(pyridin-2-ylmethoxy)benzofuran-3-carboxamide]
Cc1oc2ccc(OCc3cccnc3O)cc2c1C(=O)NC(C)(C)CO [compound 485, N-(1-hydroxy-2-methylpropan-2-yl)-5-((2-hydroxypyridin-3-yl)methoxy)-2-methylbenzofuran-3-carboxamide]
COc1ncccc1COc1ccc2oc(C)c(C(=O)NC(C)(C)CO)c2c1 [compound 486, N-(1-hydroxy-2-methylpropan-2-yl)-5-((2-methoxypyridin-3-yl)methoxy)-2-methylbenzofuran-3-carboxamide]
Cc1oc2ccc(OCc3ccccn3)cc2c1C(=O)N[C@@H](C)CO [compound 492, (S)-N-(1-hydroxypropan-2-yl)-2-methyl-5-(pyridin-2-ylmethoxy)benzofuran-3-carboxamide]
Cc1oc2ccc(OCc3ccccn3)cc2c1C(=O)N[C@H](C)CO [compound 493, (R)-N-(1-hydroxypropan-2-yl)-2-methyl-5-(pyridin-2-ylmethoxy)benzofuran-3-carboxamide]
Cc1oc2ccc(OCc3cccnc3O)cc2c1C(=O)N[C@@H](C)CO [compound 494, (S)-N-(1-hydroxypropan-2-yl)-5-((2-hydroxypyridin-3-yl)methoxy)-2-methylbenzofuran-3-carboxamide]
Cc1oc2ccc(OCc3cccnc3O)cc2c1C(=O)N[C@H](C)CO [compound 495, (R)-N-(1-hydroxypropan-2-yl)-5-((2-hydroxypyridin-3-yl)methoxy)-2-methylbenzofuran-3-carboxamide]
COc1ncccc1COc1ccc2oc(C)c(C(=O)N[C@@H](C)CO)c2c1 [compound 496, (S)-N-(1-hydroxypropan-2-yl)-5-((2-methoxypyridin-3-yl)methoxy)-2-methylbenzofuran-3-carboxamide]
COc1ncccc1COc1ccc2oc(C)c(C(=O)N[C@H](C)CO)c2c1 [compound 497, (R)-N-(1-hydroxypropan-2-yl)-5-((2-methoxypyridin-3-yl)methoxy)-2-methylbenzofuran-3-carboxamide]
Cc1ncsc1COc1ccc2oc(C)c(C(=O)NCC(F)F)c2c1 [compound 498, N-(2,2-difluoroethyl)-2-methyl-5-((4-methylthiazol-5-yl)methoxy)benzofuran-3-carboxamide]
Cc1ncc(COc2ccc3oc(C)c(C(=O)NCC(C)(F)F)c3c2)s1 [compound 499, N-(2,2-difluoropropyl)-2-methyl-5-((2-methylthiazol-5-yl)methoxy)benzofuran-3-carboxamide]

same assay, conditions: PS (50 μM) stimulated, cpds. 500-599

pIC50, > 6.00:
Cc1ncsc1COc1ccc2oc(C)c(C(=O)NCC(C)(F)F)c2c1 [compound 500, N-(2,2-difluoropropyl)-2-methyl-5-((4-methylthiazol-5-yl)methoxy)benzofuran-3-carboxamide]
CC(=O)NCCNC(=O)c1c(C)oc2ccc(OCc3scnc3C)cc12 [compound 501, N-(2-acetamidoethyl)-2-methyl-5-((4-methylthiazol-5-yl)methoxy)benzofuran-3-carboxamide]
Cc1ncc(COc2ccc3oc(C)c(C(=O)NCC(C)(C)F)c3c2)s1 [compound 504, N-(2-fluoro-2-methylpropyl)-2-methyl-5-((2-methylthiazol-5-yl)methoxy)benzofuran-3-carboxamide]
Cc1ncsc1COc1ccc2oc(C)c(C(=O)NCC(C)(C)F)c2c1 [compound 505, N-(2-fluoro-2-methylpropyl)-2-methyl-5-((4-methylthiazol-5-yl)methoxy)benzofuran-3-carboxamide]
Cc1ncsc1COc1ccc2oc(C)c(C(=O)NCC(C)(C)O)c2c1 [compound 506, N-(2-hydroxy-2-methylpropyl)-2-methyl-5-((4-methylthiazol-5-yl)methoxy)benzofuran-3-carboxamide]
Cc1ncsc1COc1ccc2oc(C)c(C(=O)NC(=O)C3(N(C)C)COC3)c2c1 [compound 508, N-(3-(dimethylamino)oxetane-3-carbonyl)-2-methyl-5-((4-methylthiazol-5-yl)methoxy)benzofuran-3-carboxamide]
Cc1ncsc1COc1ccc2oc(C)c(C(=O)NC3(C(=O)N(C)C)COC3)c2c1 [compound 509, N-(3-(dimethylcarbamoyl)oxetan-3-yl)-2-methyl-5-((4-methylthiazol-5-yl)methoxy)benzofuran-3-carboxamide]
Cc1oc2ccc(OCc3ccnn3C)cc2c1C(=O)NC1(CO)COC1 [compound 524, N-(3-(hydroxymethyl)oxetan-3-yl)-2-methyl-5-((1-methyl-1H-pyrazol-5-yl)methoxy)benzofuran-3-carboxamide]
Cc1ncc(COc2ccc3oc(C)c(C(=O)NC4(CO)COC4)c3c2)s1 [compound 525, N-(3-(hydroxymethyl)oxetan-3-yl)-2-methyl-5-((2-methylthiazol-5-yl)methoxy)benzofuran-3-carboxamide]
Cc1oc2ccc(OCc3ccccn3)cc2c1C(=O)NC1(CO)COC1 [compound 526, N-(3-(hydroxymethyl)oxetan-3-yl)-2-methyl-5-(pyridin-2-ylmethoxy)benzofuran-3-carboxamide]
Cc1oc2ccc(OCc3nccs3)cc2c1C(=O)NC1(CO)COC1 [compound 527, N-(3-(hydroxymethyl)oxetan-3-yl)-2-methyl-5-(thiazol-2-ylmethoxy)benzofuran-3-carboxamide]
COc1ncccc1COc1ccc2oc(C)c(C(=O)NC3(CO)COC3)c2c1 [compound 528, N-(3-(hydroxymethyl)oxetan-3-yl)-5-((2-methoxypyridin-3-yl)methoxy)-2-methylbenzofuran-3-carboxamide]
Cc1ncsc1COc1ccc2oc(C)c(C(=O)N(C)C3(CO)COC3)c2c1 [compound 529, N-(3-(hydroxymethyl)oxetan-3-yl)-N.2-dimethyl-5-((4-methylthiazol-5-yl)methoxy)benzofuran-3-carboxamide]
Cc1ncsc1COc1ccc2oc(C)c(C(=O)NC3(CO)CC(F)(F)C3)c2c1 [compound 537, N-(3,3-difluoro-1-(hydroxymethyl)cyclobutyl)-2-methyl-5-((4-methylthiazol-5-yl)methoxy)benzofuran-3-carboxamide]
Cc1ncsc1COc1ccc2oc(C)c(C(=O)NCCC(F)F)c2c1 [compound 574, N-(3,3-difluoropropyl)-2-methyl-5-((4-methylthiazol-5-yl)methoxy)benzofuran-3-carboxamide]
Cc1ncsc1COc1ccc2oc(C)c(C(=O)NCC(C)(C)C(N)=O)c2c1 [compound 576, N-(3-amino-2,2-dimethyl-3-oxopropyl)-2-methyl-5-((4-methylthiazol-5-yl)methoxy)benzofuran-3-carboxamide]
Cc1ncsc1COc1ccc2oc(C(F)F)c(C(=O)NC3(C(N)=O)COC3)c2c1 [compound 577, N-(3-carbamoyloxetan-3-yl)-2-(difluoromethyl)-5-((4-methylthiazol-5-yl)methoxy)benzofuran-3-carboxamide]
